The assay relates to ISC-enriched organoids. The experiment in a line: Primary screen, 384-well 2.5-D organoid differentiation (ENR+CD, 6 days, Target Selective Inhibitor Library, vs whole-plate median): ATP (CellTiter-Glo 3D, CTG). The conditions noted are these: standard z score of FC.

Counter-ions that a name gives are not always drawn.

`Cc1ccccc1C(C(=O)NC1CCCCC1)N(C(=O)Cn1ccnc1C)c1cccc(F)c1` (stereo not shown) [AGI-5198]: the Z.CTG by setting is: (primary screen, dose 0.08 uM) 0.738; (primary screen, dose 0.40 uM) 0.368; (primary screen, dose 2.00 uM) 0.671; (primary screen, dose 10.00 uM) 0.802.

Consider `CC(=O)Nc1nc2c(Oc3cc(-c4ccc(C(F)(F)F)cc4)ncn3)cccc2s1` [AMG-517], for which the Z.CTG runs as follows: (primary screen, dose 0.08 uM) 0.385; (primary screen, dose 0.40 uM) 0.269; (primary screen, dose 2.00 uM) 0.268; (primary screen, dose 10.00 uM) 0.135.

`COc1cc(N2CCC(N3CCN(C)CC3)CC2)ccc1Nc1ncc(Cl)c(Nc2ccccc2P(C)(C)=O)n1` [AP26113]: the Z.CTG was −0.130 (primary screen, dose 0.08 uM); 0.145 (primary screen, dose 0.40 uM); −1.333 (primary screen, dose 2.00 uM); −4.012 (primary screen, dose 10.00 uM).

`NC(=O)c1ncn([C@@H]2O[C@H](CO)[C@@H](O)[C@H]2O)c1N` [Acadesine] displayed a Z.CTG (primary screen, dose 0.08 uM) of 0.225; a Z.CTG (primary screen, dose 0.40 uM) of 0.413; a Z.CTG (primary screen, dose 2.00 uM) of −0.012; a Z.CTG (primary screen, dose 10.00 uM) of 0.182.

As to `COc1ccc2cccc(CCNC(C)=O)c2c1` [Agomelatine], the Z.CTG runs as follows: (primary screen, dose 0.08 uM) 0.252; (primary screen, dose 0.40 uM) 0.193; (primary screen, dose 2.00 uM) −0.472; (primary screen, dose 10.00 uM) 0.056.

Regarding `Oc1ncnc2[nH]ncc12` [Allopurinol], the Z.CTG (primary screen, dose 0.08 uM) came to 0.506; the Z.CTG (primary screen, dose 0.40 uM) is listed as −0.234; the Z.CTG (primary screen, dose 2.00 uM) is −0.387; the Z.CTG (primary screen, dose 10.00 uM) is on record as −1.085.

As to `CCOC(=O)[C@H]1O[C@@H]1C(=O)N[C@@H](CC(C)C)C(=O)NCCC(C)C` [Aloxistatin], the Z.CTG reads like this: (primary screen, dose 0.08 uM) −0.015; (primary screen, dose 0.40 uM) −0.014; (primary screen, dose 2.00 uM) −0.308; (primary screen, dose 10.00 uM) −0.511.

Regarding `CCOC(=O)C1=C(COCCN)NC(C)=C(C(=O)OC)C1c1ccccc1Cl` (stereo not shown) [Amlodipine], the Z.CTG by setting is: (primary screen, dose 0.08 uM) −0.837; (primary screen, dose 0.40 uM) −0.866; (primary screen, dose 2.00 uM) −0.888; (primary screen, dose 10.00 uM) −1.006.

Turning to `COc1ccc(C(=O)N2CCCC2=O)cc1` [Aniracetam], the Z.CTG reads like this: (primary screen, dose 0.08 uM) −0.211; (primary screen, dose 0.40 uM) 0.267; (primary screen, dose 2.00 uM) 0.130; (primary screen, dose 10.00 uM) 0.045.

As to `N#CC1(c2ccc(NC(=O)c3cccnc3NCc3ccncc3)cc2)CCCC1` [Apatinib], the Z.CTG reads like this: (primary screen, dose 0.08 uM) 0.532; (primary screen, dose 0.40 uM) 0.722; (primary screen, dose 2.00 uM) 0.645; (primary screen, dose 10.00 uM) 0.520.

As to `O=c1cc(-c2ccc(O)cc2)oc2cc(O)cc(O)c12` [Apigenin], the Z.CTG is, setting by setting: (primary screen, dose 0.08 uM) 0.588; (primary screen, dose 0.40 uM) 0.510; (primary screen, dose 2.00 uM) 0.753; (primary screen, dose 10.00 uM) 0.063.

For `COc1ccc(-n2nc(C(N)=O)c3c2C(=O)N(c2ccc(N4CCCCC4=O)cc2)CC3)cc1` [Apixaban], the Z.CTG reads like this: (primary screen, dose 0.08 uM) −0.212; (primary screen, dose 0.40 uM) 0.266; (primary screen, dose 2.00 uM) −0.144; (primary screen, dose 10.00 uM) −0.185.

With `C[C@@H](O[C@H]1OCCN(Cc2n[nH]c(=O)[nH]2)[C@H]1c1ccc(F)cc1)c1cc(C(F)(F)F)cc(C(F)(F)F)c1` [Aprepitant], the Z.CTG is 0.747 (primary screen, dose 0.08 uM); 0.962 (primary screen, dose 0.40 uM); 0.346 (primary screen, dose 2.00 uM); 0.121 (primary screen, dose 10.00 uM).

As to `CC[C@@H]1C(=O)N(C)c2cnc(Nc3ccc(C(=O)NC4CCN(C)CC4)cc3OC)nc2N1C1CCCC1` [BI 2536], the Z.CTG by setting is: (primary screen, dose 0.08 uM) 0.069; (primary screen, dose 0.40 uM) −1.275; (primary screen, dose 2.00 uM) −1.220; (primary screen, dose 10.00 uM) −2.455.

`Cn1c(N2CCCCS2(=O)=O)nc(C(=O)NCc2ccc(F)cc2)c(O)c1=O` [BMS-707035]: the Z.CTG is, setting by setting: (primary screen, dose 0.08 uM) 0.759; (primary screen, dose 0.40 uM) 0.568; (primary screen, dose 2.00 uM) 0.667; (primary screen, dose 10.00 uM) 0.330.

In the case of `Cc1c(-c2ccc(O)cc2)n(Cc2ccc(OCCN3CCCCCC3)cc2)c2ccc(O)cc12` [Bazedoxifene HCl], the Z.CTG by setting is: (primary screen, dose 0.08 uM) 1.009; (primary screen, dose 0.40 uM) 0.873; (primary screen, dose 2.00 uM) −1.862; (primary screen, dose 10.00 uM) −2.741.

Consider `COc1c(O)cc2c(c1O)[C@@H]1O[C@H](CO)[C@@H](O)[C@H](O)[C@H]1OC2=O` [Bergenin], for which the Z.CTG (primary screen, dose 0.08 uM) came out at 0.687; the Z.CTG (primary screen, dose 0.40 uM) turned out to be 0.585; the Z.CTG (primary screen, dose 2.00 uM) is 0.491; the Z.CTG (primary screen, dose 10.00 uM) turned out to be 0.821.

On to `CC[C@H](NC(=O)[C@H](C)NC)C(=O)N1C[C@@H](O)C[C@H]1Cc1c(-c2[nH]c3cc(F)ccc3c2C[C@@H]2C[C@H](O)CN2C(=O)[C@H](CC)NC(=O)[C@H](C)NC)[nH]c2cc(F)ccc12` [Birinapant], for which the Z.CTG (primary screen, dose 0.08 uM) is −0.615; the Z.CTG (primary screen, dose 0.40 uM) is listed as 0.226; the Z.CTG (primary screen, dose 2.00 uM) came to 0.542; the Z.CTG (primary screen, dose 10.00 uM) stood at 0.293.

`CC(C)NCC(O)COc1ccc(COCCOC(C)C)cc1` (stereo not shown) [Bisoprolol fumarate] showed a Z.CTG (primary screen, dose 0.08 uM) of −0.249; a Z.CTG (primary screen, dose 0.40 uM) of −0.136; a Z.CTG (primary screen, dose 2.00 uM) of −0.048; a Z.CTG (primary screen, dose 10.00 uM) of 0.139.

Take `COc1ccccc1Oc1c(NS(=O)(=O)c2ccc(C(C)(C)C)cc2)nc(-c2ncccn2)nc1OCCO` [Bosentan Hydrate]: the Z.CTG is recorded as 0.487 (primary screen, dose 0.08 uM); 0.495 (primary screen, dose 0.40 uM); 0.288 (primary screen, dose 2.00 uM); 0.204 (primary screen, dose 10.00 uM).

Take `CCN[C@H]1CN(CCCOC)S(=O)(=O)c2sc(S(N)(=O)=O)cc21` [Brinzolamide]: the Z.CTG is reported as −0.017 (primary screen, dose 0.08 uM) and 0.282 (primary screen, dose 2.00 uM).

In the case of `CCCCN1CCCCC1C(=O)Nc1c(C)cccc1C` (stereo not shown) [Bupivacaine HCl], the Z.CTG is given as −0.870 (Dose 10.00 uM); −0.008 (primary screen, dose 0.08 uM); −0.517 (primary screen, dose 0.40 uM); −0.717 (primary screen, dose 2.00 uM).

As to `CCNC(=O)[C@H]1O[C@@H](n2cnc3c(N)nc(NCCc4ccc(CCC(=O)O)cc4)nc32)[C@H](O)[C@@H]1O` [CGS 21680 HCl], the Z.CTG reads like this: (Dose 0.08 uM) 0.724; (Dose 0.40 uM) 1.049; (Dose 2.00 uM) 0.799; (Dose 10.00 uM) −3.328.

In the case of `COCCOc1ccc2c(c1)ncn2-c1ccc2cccc(N3CCC(N)CC3)c2n1` [CP-673451], the Z.CTG (Dose 0.08 uM) is reported as 0.166, the Z.CTG (Dose 0.40 uM) is 0.445, the Z.CTG (Dose 2.00 uM) stood at 0.018 and the Z.CTG (Dose 10.00 uM) is recorded as −0.616.

As to `O=C(/C=C/c1ccc(O)c(O)c1)OCCc1ccccc1` [Caffeic Acid Phenethyl Ester], the Z.CTG runs as follows: (Dose 0.08 uM) 0.627; (Dose 0.40 uM) −0.026; (Dose 2.00 uM) −0.152; (Dose 10.00 uM) −1.221.

For the compound `C[C@H](CS)C(=O)N1CCC[C@H]1C(=O)O` [Captopril], the Z.CTG by setting is: (Dose 0.08 uM) −0.134; (Dose 0.40 uM) 0.257; (Dose 2.00 uM) 0.294; (Dose 10.00 uM) 0.255.

As to `COc1ccccc1OCCNCC(O)COc1cccc2[nH]c3ccccc3c12` (stereo not shown) [Carvedilol], the Z.CTG by setting is: (Dose 0.08 uM) 0.136; (Dose 0.40 uM) −0.034; (Dose 2.00 uM) −0.360; (Dose 10.00 uM) −0.577.
